The test system of test [1] is S. aureus Col (Meth^R) (lac^-). Put plainly: MIC by agar dilution, S. aureus Col (Meth^R) (lac^-). The class given is cell-based. Conditions: Staphylococcus aureus; agar dilution; S. aureus Col (Meth^R) (lac^-); read-out: MIC. In outline:
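Agar dilution per NCCLS (1991): two-fold dilutions from 128 μg/mL down to ≤0.25 μg/mL in Mueller-Hinton agar, each level in duplicate. Spots of about 10^4 cfu of log-phase culture; 16-20 h at 35°-36° C. MIC in μg/ml is the lowest concentration inhibiting growth.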

Test [2] relates to methicillin-susceptible S. aureus strain ATCC 13709. Put plainly: murine model for lethal bacteremic peritonitis. The class given is in vivo, female Swiss-Webster mice. The settings on record: subcutaneous, 72 h. The procedure:
Groups of 5 female Swiss-Webster mice (Simonsen, Gilroy, Calif.) each are challenged by the intraperitoneal (IP) route with tenfold increments of a bacterial inoculum. This permits calculation of the mean lethal dose (LD50) and the LD100. For preliminary evaluation of a new antibiotic, mice are challenged IP with an LD100 titer of bacteria. In two equal doses administered at the time of bacterial challenge and 2 hours later, groups of 10 mice each are treated subcutaneously with two-fold increments of the test drug and an antibiotic of known efficacy in mice and humans (i.e., positive control). Mice are observed for 72 h. Those alive at 72 h are considered long term survivors. The total drug dose in mg/kg that protects 50% of mice in a group from death is termed the mean protective dose (PD50). PD50 s are similarly determined for several pathogens. The quantitative endpoints for the new drug are then compared with those obtained with reference antibiotics.
Six ten-fold dilutions of inoculum suspended in 0.5 mL of sterilized 7% hog gastric mucin (Sigma) are injected IP in groups of 5 mice each. A control group of 5 mice receive mucin alone. Mice are observed for 72 h. Those alive at 72 h are considered long term survivors. The mean lethal dose (LD50) and 100% lethal dose (LD100) are determined by the probit test.
For antibiotic efficacy studies, mice are challenged IP with bacterial titers that will afford an LD100 for the test strain. In two equal doses administered at the time of bacterial challenge and 2 hours later, groups of 10 mice each are treated by the subcutaneous route (SC) with twofold increments of the test antibiotic; another group is treated similarly with a reference antibiotic of known efficacy in animals and man. Drug doses can range from 0.01 to 512 mg/kg. If the drug is poorly soluble, Tween 20 or propylene glycol will be employed to solubilize the drug. Animals are observed for 72 h. The 50% protective dose (PD50) is calculated in mg/kg by the probit method. The PD50 is the same as the 50% effective dose (ED50) and the 50% curative dose (CD50). Samples of blood from the hearts of all animals that die and from half the mice that survive are cultured on brain-heart infusion agar. Animals that received a protective dosage of the test drug will be alive at 72 h, although they may appear moderately ill to very ill during the observation period. […] Most of these mice will die within 6 to 48 h. Those alive at 72 h will be considered long term survivors.
(Compound numbers correspond to those in MIC tables; data
reported for challenge with methicillin-susceptible S. aureus

The values that follow come from patent US5698547A, “Cephalosporin antibiotics” (Microcide Pharmaceuticals, Inc., priority 1995, dated 1997).

Converted amounts (≈) assume the structure as drawn. Where a name gives a salt, the structure may show the parent alone. Where only a bound is given, the exact number is not on record here.

By MIC is commonly meant the least concentration at which growth counts as inhibited.

For `O=C(O)C1=C(Sc2ccnn2-c2ccccc2)CS[C@@H]2[C@H](NC(=O)/C(=N\O)c3ccccc3)C(=O)N12` [Cmpd 130, (7R)-7-[(Z)-2-(Phenyl)-2-(hydroxyimino)acetamido]-3-(1-N-(phenyl)pyrazol-5-ylthio)-3-cephem-4-carboxylic acid], the MIC in test [1] amounted to 2 µg/mL (≈ 3.83 µM). Moreover, the Mortality in test [2] (dose 0.625 mg/kg) was 10/10; in test [2] (dose 1.25 mg/kg), 7/10; in test [2] (dose 2.5 mg/kg), 9/10; in test [2] (dose 5 mg/kg), 6/10; in test [2] (dose 10 mg/kg), 6/10.

With `N#CCC(=O)N[C@@H]1C(=O)N2C(C(=O)O)=C(Sc3ccnn3-c3ccccc3)CS[C@H]12` [Cmpd 88, (7R)-7-[(Cyanoacetyl)amino]-3-(1-N-phenylpyrazol-5-ylthio)-3-cephem-4-carboxylic acid], the MIC in test [1] was 4 µg/mL (≈ 9.06 µM). The Mortality in test [2] (dose 0.625 mg/kg) is reported as 2/10; in test [2] (dose 1.25 mg/kg), 1/10; in test [2] (dose 2.5 mg/kg), 0/10; in test [2] (dose 5 mg/kg), 0/10; in test [2] (dose 10 mg/kg), 0/10.

With `CO/N=C(\C(=O)N[C@@H]1C(=O)N2C(C(=O)O)=C(COC(C)=O)CS[C@H]12)c1csc(N)n1` [Cefotaxime, (7R)-3-Acetoxymethyl-7-[(Z)-2-(aminothiazol-4-yl)-2-(methoxyimino)acetamido]-3-cephem-4-carboxylic acid, reference compound], the MIC in test [1] was greater than 32 µg/mL. The Mortality is 8/10 in test [2] (dose 2.5 mg/kg); 5/10 in test [2] (dose 5 mg/kg); 3/10 in test [2] (dose 10 mg/kg); 4/10 in test [2] (dose 20 mg/kg); 1/10 in test [2] (dose 40 mg/kg).

As for `N#Cc1ccccc1SC1=C(C(=O)O)N2C(=O)[C@@H](NC(=O)Cc3ccccc3)[C@H]2SC1` [Cmpd 41, (7R)-7-[(Phenylacetyl)amino]-3-(2-cyanophenylthio)-3-cephem-4-carboxylic acid], the MIC in test [1] was determined as 1 µg/mL (≈ 2.21 µM). The Mortality in test [2] (dose 0.625 mg/kg) was 8/10; in test [2] (dose 1.25 mg/kg), 6/10; in test [2] (dose 2.5 mg/kg), 0/10; in test [2] (dose 5 mg/kg), 0/10; in test [2] (dose 10 mg/kg), 0/10.

As for `N#CCSCC(=O)N[C@@H]1C(=O)N2C(C(=O)O)=C(Sc3ccnn3-c3ccccc3)CS[C@H]12` [Cmpd 122, (7R)-7-[(cyanomethylthioacetyl)amino]-3-(1-N-phenylpyrazol-5-ylthio)-3-cephem-4-carboxylic acid], the MIC in test [1] is 4 µg/mL (≈ 8.2 µM). The Mortality was 8/10 in test [2] (dose 0.625 mg/kg); 6/10 in test [2] (dose 1.25 mg/kg); 0/10 in test [2] (dose 2.5 mg/kg); 0/10 in test [2] (dose 5 mg/kg); 0/10 in test [2] (dose 10 mg/kg).

Turning to `O=C(CSc1ccccc1)N[C@@H]1C(=O)N2C(C(=O)O)=C(Sc3ccnn3-c3ccccc3)CS[C@H]12` [Cmpd 119, (7R)-7-[(phenylthioacetyl)amino]-3-(1-N-phenylpyrazol-5-ylthio)-3-cephem-4-carboxylic acid], the MIC in test [1] worked out at 2 µg/mL (≈ 3.81 µM). The Mortality is listed as 10/10 in test [2] (dose 0.3125 mg/kg); 9/10 in test [2] (dose 0.625 mg/kg); 10/10 in test [2] (dose 1.25 mg/kg); 7/10 in test [2] (dose 2.5 mg/kg); 8/10 in test [2] (dose 5 mg/kg).

For the molecule `CC(C)N=C(NC(C)C)SCC(=O)N[C@@H]1C(=O)N2C(C(=O)O)=C(Sc3ccccc3CSC(=N)N)CS[C@H]12` [Cmpd 125, (7R)-7-[((N,N'-diisopropylisothiouronium)acetyl)amino]-3-(2-isothiouroniummethylphenylthio)-3-cephem-4-carboxylate, trifluoroacetic acid salt], the MIC in test [1] turned out to be 4 µg/mL. Further, the Mortality is 9/10 in test [2] (dose 0.625 mg/kg); 10/10 in test [2] (dose 1.25 mg/kg); 7/10 in test [2] (dose 2.5 mg/kg); 4/9 in test [2] (dose 5 mg/kg); 7/10 in test [2] (dose 10 mg/kg).

For `CSCC(=O)N[C@@H]1C(=O)N2C(C(=O)O)=C(Sc3ccccc3CSC(=N)N)CS[C@H]12` [Cmpd 127, (7R)-7-[(methylthioacetyl)amino]-3-(2-isothiouroniummethylphenylthio)-3-cephem-4-carboxylate, inner salt], the MIC in test [1] worked out at 4 µg/mL. For the same molecule, the Mortality in test [2] (dose 0.3125 mg/kg) is 6/10; in test [2] (dose 0.625 mg/kg), 5/10; in test [2] (dose 1.25 mg/kg) it was 4/10; in test [2] (dose 2.5 mg/kg), 2/10; in test [2] (dose 5 mg/kg), 1/10.

Consider `N=C(N)SCc1ccc(CC(=O)N[C@@H]2C(=O)N3C(C(=O)O)=C(Sc4ccccc4CSC(=N)N)CS[C@H]23)cc1` [Cmpd 97, (7R)-7-[((4-isothiouroniummethylphenyl)acetyl)amino]-3-(2-isothiouroniummethylphenylthio)-3-cephem-4-carboxylate, trifluoroacetic acid salt], for which the MIC in test [1] stood at 2 µg/mL. Moreover, the Mortality in test [2] (dose 0.3125 mg/kg) is listed as 8/10; in test [2] (dose 0.625 mg/kg) it was 5/10; in test [2] (dose 1.25 mg/kg), 3/10; in test [2] (dose 2.5 mg/kg) it was 2/10; in test [2] (dose 5 mg/kg), 0/10.

As for `O=C(Cc1ccccc1)N[C@@H]1C(=O)N2C(C(=O)O)=C(Sc3cccnc3-n3cccn3)CS[C@H]12` [Cmpd 103, (7R)-7-[(Phenylacetyl)amino]-3-(2-(pyrazol-1-yl)pyridin-3-ylthio)-3-cephem-4-carboxylic acid], the MIC in test [1] stood at 2 µg/mL (≈ 4.05 µM). Further, the Mortality is on record as 7/10 in test [2] (dose 0.625 mg/kg); 7/10 in test [2] (dose 1.25 mg/kg); 7/10 in test [2] (dose 2.5 mg/kg); 5/10 in test [2] (dose 5 mg/kg); 0/10 in test [2] (dose 10 mg/kg).

On to `CCC(CC)O/N=C(\C(=O)N[C@@H]1C(=O)N2C(C(=O)O)=C(Sc3ccnn3-c3ccccc3)CS[C@H]12)c1csc(N)n1` [Cmpd 104, (7R)-7-[(Z)-2-(aminothiazol-4-yl)-2-(3-pentyloxyimino)acetamido]-3-(1-N-phenylpyrazol-5-ylthio)-3-cephem-4-carboxylic acid], for which the MIC in test [1] came to 2 µg/mL (≈ 3.26 µM). Further, the Mortality is 6/10 in test [2] (dose 0.625 mg/kg); 10/10 in test [2] (dose 1.25 mg/kg); 8/10 in test [2] (dose 2.5 mg/kg); 8/10 in test [2] (dose 5 mg/kg); 9/10 in test [2] (dose 10 mg/kg).

Regarding `O=C(Cc1ccccc1)N[C@@H]1C(=O)N2C(C(=O)O)=C(Sc3ccnn3-c3ccccc3)CS[C@H]12` [Cmpd 87, (7R)-7-[(Phenylacetyl)amino]-3-(1-N-phenylpyrazol-5-ylthio)-3-cephem-4-carboxylic acid], the MIC in test [1] was determined as 1 µg/mL (≈ 2.03 µM). The Mortality in test [2] (dose 2 mg/kg) is 4/10; in test [2] (dose 4 mg/kg), 3/10; in test [2] (dose 8 mg/kg) it was 0/10; in test [2] (dose 16 mg/kg) it was 0/10.

With `N#CCC(=O)N[C@@H]1C(=O)N2C(C(=O)O)=C(Sc3ccccc3I)CS[C@H]12` [Cmpd 17, (7R)-7-[(Cyanoacetyl)amino]-3-(o-iodophenylthio)-3-cephem-4-carboxylic acid], the minimum inhibitory concentration (MIC) in test [1] was 2 µg/mL (≈ 3.99 µM). In addition, the Mortality in test [2] (dose 2 mg/kg) is 8/10; in test [2] (dose 4 mg/kg), 5/10; in test [2] (dose 8 mg/kg), 0/10; in test [2] (dose 16 mg/kg), 0/10.

As to `Cc1nnc(SCC(=O)N[C@@H]2C(=O)N3C(C(=O)O)=C(Sc4ccnn4-c4ccccc4)CS[C@H]23)s1` [Cmpd 118], the MIC in test [1] amounted to 4 µg/mL (≈ 7.32 µM). Moreover, the Mortality in test [2] (dose 0.625 mg/kg) is 8/10; in test [2] (dose 1.25 mg/kg), 6/10; in test [2] (dose 2.5 mg/kg), 8/10; in test [2] (dose 5 mg/kg), 4/10; in test [2] (dose 10 mg/kg), 2/10.

On to `CSCC(=O)N[C@@H]1C(=O)N2C(C(=O)O)=C(Sc3ccnn3-c3ccccc3)CS[C@H]12` [Cmpd 106, (7R)-7-[(methylthioacetyl)amino]-3-(1-N-phenylpyrazol-5-ylthio)-3-cephem-4-carboxylic acid], for which the MIC in test [1] came to 1 µg/mL (≈ 2.16 µM). The Mortality is listed as 9/10 in test [2] (dose 0.1562 mg/kg); 9/10 in test [2] (dose 0.3125 mg/kg); 6/10 in test [2] (dose 0.625 mg/kg); 2/10 in test [2] (dose 1.25 mg/kg); 1/10 in test [2] (dose 2.5 mg/kg).
